In patent US8470776B2, “Conjugates of disorazoles and their derivatives with cell-binding molecules, novel disorazole derivatives, processes of manufacturing and uses thereof” (Aeterna Zentaris GmbH, priority 2006, dated 2013):
Values after ≈ are worked out from the molar mass of the structure shown.

Experiments:
[1] = system: various human tumor cell lines; conditions: nano- and picomolar concentrations; WO 2004/024149; cited from earlier work
[2] = system: human cervical carcinoma cell line KB/HeLa; test: cells; assay type: cell-based; conditions: for IC50 KB/HELA: XTT, 45 h incubation
Source text: (§1) Selected compounds of the invention were investigated for their antiproliferative activity in a proliferation test on established tumor cell lines.
(§2) The test used determines the cellular dehydrogenase activity and makes possible a determination of the cell vitality and indirectly the cell count.
(§3) The cell lines used are the human cervical carcinoma cell line KB/HeLa (ATCC CCL17), the ovarian adenocarcinoma cell line SKOV-3 (ATCC HTB77), the human glioblastoma cell line SF-268 (NCI-503138) and the lung carcinoma cell line NCI-H460 (NCI-503473). In addition, for the investigation of the cell cycle-specific action of the compounds of the invention, an RKOp27 cell system was used (Schmidt M et al. Oncogene 2000, 19(20): 2423-2429). RKO is a human colon carcinoma cell line (ATCC CRL-2577), in which the cell cycle inhibitor p27^kip1 induced by means of the ecdysone expression system is expressed and can be led to a cell cycle arrest specifically in […]. A nonspecifically acting substance inhibits the proliferation independently of whether the RKO cell is or is not arrested in G1 or G2. Cell cycle-specific substances such as, for example, tubulin inhibitors are, however, only cytotoxic if cells are not arrested and the cell cycle is passed through.
(§4) The adherently growing tumor cell lines KB/HeLa, SKOV-3, SF-268 and NCI-H460 were cultured under standard conditions in an incubator at 37° C., 5% CO2 and 95% atmospheric humidity. On experimental day 1, the cells are detached using trypsin/EDTA and pelleted by centrifugation. Subsequently, the cell pellet is resuspended in the respective culture medium at the corresponding cell count and reacted in a 96-well microtiter plate. The plates are then cultured overnight in the incubator. The test substances are prepared as 1 mg/ml stock solutions in DMSO and diluted to the appropriate concentrations on experimental day 2 using culture medium. The substances in culture medium are then added to the cells and incubated in the incubator for 45 h. As a control, cells which are not treated with test substance are used. For the XTT assay, 1 mg/ml of XTT (sodium 3′-[1-(phenylaminocarbonyl)-3,4-tetrazolium]-bis(4-methoxy-6-nitro)benzenesulfonic acid) is dissolved in RPMI-1640 medium without Phenol Red. Additionally, a 0.383 mg/ml PMS (N-methyldibenzopyrazine methylsulfate) solution in phosphate-buffered saline solution (PBS) is prepared. On experimental day 4, 75 μl/well of XTT-PMS mixture is pipetted onto the cell plates which in the meantime have been incubated with the test substances for 45 h. For this, shortly before use, the XTT solution is mixed with the PMS solution in the ratio 50:1 (vol:vol). The cell plates are then incubated in the incubator for a further 3 h and the optical density (OD490 nm) is determined in a photometer. By means of the OD490 nm determined, the percentage inhibition is calculated relative to the control and plotted semilogarithmically in the form of a concentration-action curve. The IC50 is calculated by means of a regression analysis from the concentration-action curve using the program Graphpad Prism.

[3] = system: human glioblastoma cell line SF-268; test: cells; assay type: cell-based; conditions: for IC50 SF-268: XTT, 45 h incubation
Source text: as §1, §2, §3, §4

[4] = system: lung carcinoma cell line NCI-H460; test: cells; assay type: cell-based, human; conditions: for IC50 NCI-H460: XTT, 45 h incubation
Source text: as §1, §2, §3, §4

[5] = system: ovarian adenocarcinoma cell line SKOV-3; test: cells; assay type: cell-based, human; conditions: for IC50 SKOV-3: XTT, 45 h incubation
Source text: as §1, §2, §3, §4

[6] = system: RKOp27 cells (human colon carcinoma cell line RKO), p27kip1 induced; test: cells; assay type: cell-based; conditions: for IC50 RKOp27 induced: p27kip1 induced with 3 μM muristerone A, XTT, 45 h
Source text: as §3, §4
(§5) The assay is carried out in 96-well plates. […] By comparison of the activity on induced and noninduced cells, conclusions on the mechanism of action (cell cycle specificity) of the therapeutics can be drawn. […] cells are inoculated in approximately three-fold higher cell count, since division no longer takes place during the assay in comparison with uninduced cells (20000 cells/well induced, 6250 cells/well not induced). The controls are untreated cells (+/−induction). The induction is carried out with 3 μM muristerone A. On the 1st day, the cells are exposed (+/−muristerone A) and incubated at 37° C. for 24 h. On day 2, the test substance is added (control DMSO) and incubation is continued at 37° C. for a further 45 h before a standard XTT assay is carried out.

[7] = system: RKOp27 cells (human colon carcinoma cell line RKO), p27kip1 not induced; test: cells; assay type: cell-based; conditions: for IC50 RKOp27: without expression of p27kip1, XTT, 45 h
Source text: as §3, §4, §5

[8] = system: human GnRH receptor (hGnRH-R) positive cell line 5C6; test: GnRH-receptor dependent proliferation assay, 5C6; assay type: cell-based; conditions: 30 min exposure, vital cells vs untreated control = 100%
Experimental: (§6) The dose-dependent receptor-mediated inhibition of cell proliferation of selected compounds of the invention was investigated.
(§7) To study these effects a human GnRH receptor (hGnRH-R) positive cell line (5C6; Beckers et al., Eur. J. Biochem. 1995, 231: 535-543) and an hGnRH-R negative cell line (LTK^−; ECACC No. 85011432) was used.
(§8) Respective cells were exposed to 1 mL culture medium in 24 well multi-titer-plates (MTPs) with a cell number of 15000 cells per well. The cell number is adjusted in such a way that after 5 days of testing the untreated control cells are still in the exponential growth phase.
(§9) Test compounds are given to the cultured cells after 4 hours of initial growth (adherence) in a volume of 100 μL to yield the final concentrations given in table 2.
(§10) After 30 min of incubation at 37° C. the entire culture medium is sucked off and the cells are washed twice with culture medium without test compounds. After the washing the cells are placed into an incubator (at 37° C., 5% CO2 and 95% atmospheric humidity) and incubated for further 4 days.
(§11) For the determination of the cell number after incubation the cells are detached using trypsin/EDTA and centrifuged. The number of vital cells and the total cell number are counted using a Vi-Cell Analyzer (Beckman Coulter).
(§12) The number of vital cells is analyzed in comparison with untreated control cells (=100%). Only cell groups (respective wells) are considered of which the total cell viability is more than 90%, i.e. inhibition of cell proliferation by unspecific toxicity can be excluded.
(§13) The proliferation status of untreated control cells after 96 hours is set to 100%.

[9] = system: hGnRH-R negative cell line LTK−; test: GnRH-receptor dependent proliferation assay, LTK-; assay type: cell-based; conditions: 30 min exposure, vital cells vs untreated control = 100%
Experimental: as §6, §7, §8, §9, §10, §11, §12, §13

[10] = system: GnRH receptor positive, human ovarian carcinoma cell line OVCAR-3; test: OVCAR-3 tumors in nude mice, single i.v. dose; assay type: in vivo, CD 1 nu/nu nude mice; conditions: for Average tumor size day 18: once on day 0, tail vein; for Average tumor size day 0: tail vein, day 0 (baseline before dosing)
Experimental: 30 CD 1 nu/nu nude mice were inoculated subcutaneously with the GnRH receptor positive, human ovarian carcinoma cell line OVCAR-3 (5 million cells per animal). The experiment was started after formation of solid tumors. 5 animals per dose group were used.
On day 0 of the experiment, the individual tumor volume was determined by palpation and set to 100%. Test compounds were administered subsequently on day 0 of the experiment by injection into the tail vein of the test animals.
A standard volume of 10 ml of 0.9% saline per kg (200 μl per 20 g mouse) containing the test compound in the required concentration was administered once only on day 0 of the experiment.
The tumor size was determined again by palpation on day 18 of the experiment.
In the case of appearance of additional tumors, the volumes were added.

[11] = system: cell models; conditions: reported in literature; cited from earlier work
[12] = system: mammalian cells; conditions: Elnakady et al. 2004; cited from earlier work
[13] = system: paclitaxel- and vindesine-resistant cell lines; conditions: WO 2004/024149; cited from earlier work

Compound: disorazole D1
- cytotoxic action on various human tumor cell lines [1]: possess cytotoxic action

Compound: C/C=C/C(O)C(C)(C(=O)OC)C1C\C=C/C=C/C=C/c2nc(co2)C(=O)OC(C(C)(C(=O)OC)C(/C=C/C)OC(=O)CCC(=O)NCCCC[C@H](NC(=O)[C@H](Cc2ccc(O)cc2)NC(=O)[C@H](CO)NC(=O)[C@H](Cc2c[nH]c3ccccc23)NC(=O)[C@H](Cc2cnc[nH]2)NC(=O)[C@@H]2CCC(=O)N2)C(=O)N[C@@H](CC(C)C)C(=O)N[C@@H](CCCNC(=N)N)C(=O)N2CCC[C@H]2C(=O)NCC(N)=O)C\C=C/C=C/C=C/c2nc(co2)C(=O)O1 (stereo partly drawn) [compound 16, Disorazole Z Mono Hemi Succinyl [D-Lys^6]LHRH]
- IC50 KB/HELA [2]: 18.92 ng/mL (≈ 9.09 nM)
- IC50 SF-268 [3]: 17.8 ng/mL (≈ 8.55 nM)
- IC50 NCI-H460 [4]: 9.235 ng/mL (≈ 4.43 nM)
- IC50 SKOV-3 [5]: 7.683 ng/mL (≈ 3.69 nM)
- IC50 RKOp27 induced [6]: >3160 ng/mL
- IC50 RKOp27 [7]: 5.18 ng/mL (≈ 2.49 nM)
- proliferation status after 96 hours, cell line 5C6, 0.1 nM ([8]; 0.1 nM): 83.8%
- proliferation status after 96 hours, cell line 5C6, 1 nM ([8]; 1 nM): 80.9%
- proliferation status after 96 hours, cell line 5C6, 10 nM ([8]; 10 nM): 54.1%
- proliferation status after 96 hours, cell line 5C6, 100 nM ([8]; 100 nM): 21.9%
- proliferation status after 96 hours, cell line LTK−, 0.1 nM ([9]; 0.1 nM): 101.8%
- proliferation status after 96 hours, cell line LTK−, 1 nM ([9]; 1 nM): 105.8%
- proliferation status after 96 hours, cell line LTK−, 10 nM ([9]; 10 nM): 103.4%
- proliferation status after 96 hours, cell line LTK−, 100 nM ([9]; 100 nM): 61.7%
- Average tumor size day 18 ([10]; 0.1 mg/kg = 43 nmol/kg, day 18): 76
- Average tumor size day 0 ([10]; 0.1 mg/kg = 43 nmol/kg): 79
- Average tumor size day 18 ([10]; 0.5 mg/kg = 215 nmol/kg, day 18): 40
- Average tumor size day 0 ([10]; 0.5 mg/kg = 215 nmol/kg): 74

Compound: C/C=C/[C@H](O)C(C)(C)[C@@H]1C\C=C/C=C\C=C\[C@H](OC)Cc2nc(co2)C(=O)O[C@H](C(C)(C)[C@@H](O)/C=C/C)C/C=C\[C@H]2O[C@H]2/C=C/C=C\c2nc(co2)C(=O)O1 [disorazol A1, disorazole A1, reference compound]
- IC50 KB/HELA [2]: 0.049 ng/mL (≈ 0.0646 nM)
- IC50 SF-268 [3]: 0.125 ng/mL (≈ 0.165 nM)
- IC50 NCI-H460 [4]: 0.022 ng/mL (≈ 0.029 nM)
- IC50 SKOV-3 [5]: 0.027 ng/mL (≈ 0.0356 nM)
- IC50 RKOp27 induced [6]: >3160 ng/mL
- IC50 RKOp27 [7]: 0.049 ng/mL (≈ 0.0646 nM)
- antiproliferative action in cell models [11]: possesses an antiproliferative action
- induction of apoptosis in mammalian cells [12]: induces apoptosis

Compound: C/C=C/C(O)C(C)(C)C1C/C=C\C2OC2C=CC(OC)Cc2nc(co2)C(=O)OC(C(C)(C)C(O)/C=C/C)C/C=C\C2OC2/C=C\C=Cc2nc(co2)C(=O)O1 (centres unmarked) [disorazol E1, disorazole E1, reference compound]
- IC50 KB/HELA [2]: 0.17 ng/mL (≈ 0.219 nM)
- IC50 SF-268 [3]: 0.474 ng/mL (≈ 0.612 nM)
- IC50 NCI-H460 [4]: 0.065 ng/mL (≈ 0.0839 nM)
- IC50 SKOV-3 [5]: 0.074 ng/mL (≈ 0.0955 nM)
- IC50 RKOp27 induced [6]: >3160 ng/mL
- IC50 RKOp27 [7]: 0.17 ng/mL (≈ 0.219 nM)
- cytotoxic action on various human tumor cell lines [1]: possess cytotoxic action
- activity against paclitaxel- and vindesine-resistant cell lines [13]: active

Compound: C/C=C/C(O)C(C)(C(=O)OC)C1C\C=C/C=C/C=C/c2nc(co2)C(=O)OC(C(C)(C(=O)OC)C(O)/C=C/C)C\C=C/C=C/C=C/c2nc(co2)C(=O)O1 (centres unmarked) [disorazol Z, disorazole Z, reference compound]
- IC50 ([2]; Homo sapiens, HeLa, 45 h, read-out: IC50 KB/HELA): 1.01 ng/mL (≈ 1.35 nM)
- IC50 ([3]; Homo sapiens, SF-268, 45 h, read-out: IC50 SF-268): 1.28 ng/mL (≈ 1.72 nM)
- IC50 ([4]; Homo sapiens, NCI-H460, 45 h, read-out: IC50 NCI-H460): 0.67 ng/mL (≈ 0.897 nM)
- IC50 ([5]; Homo sapiens, SK-OV-3, 45 h, read-out: IC50 SKOV-3): 0.504 ng/mL (≈ 0.675 nM)
- IC50 ([6]; Homo sapiens, RKOp27, 45 h, read-out: IC50 RKOp27 induced): > 3160 ng/mL
- IC50 ([7]; Homo sapiens, RKOp27, 45 h, read-out: IC50 RKOp27): 0.659 ng/mL (≈ 0.882 nM)
- Average tumor size day 18 ([10]; 0.16 mg/kg = 215 nmol/kg, day 18): 146
- Average tumor size day 0 ([10]; 0.16 mg/kg = 215 nmol/kg): 92
- suppression of tumor growth (in words) ([10]; OVCAR-3 tumors, single i.v. dose, day 18): moderate suppression of tumor growth
